Data set [1] deals with Schistosoma mansoni. Briefly: Antischistosomal activity against Schistosoma mansoni Puerto-Rican incubated for 72 hrs by inverted microscopic method. Format: functional, organism-based.
In data set [2] the test system is Schistosoma mansoni. In words: Antischistosomal activity against Schistosoma mansoni infected in NMRI mouse assessed as worm burden reduction at 400 mg/kg, po administered […] for 4 consecutive days and measured after 14 days relative to control. The arrangement: scale not given: the % may be the effect or the level left. To be noted: time 14 day. Format: functional.

Data set [3] has as its system Schistosoma mansoni. Briefly: microbe, parasite or virus in culture. To be noted: Liberian, 72 h.
Description: Antischistosomal activity against Schistosoma mansoni Liberian NTS incubated for 72 hrs by microscopic method
The test system of data set [4] is Schistosoma mansoni. In words: Antischistosomal activity against adult Schistosoma mansoni LE assessed as reduction in motor activity at 50 uM measured after 24 hrs by inverted microscopy relative to control. Format: functional. The arrangement: scale not given: the % may be the effect or the level left.
Data set [5] has as its system Schistosoma mansoni. Briefly: Antischistosomal activity against Schistosoma mansoni Liberian infected in NMRI mouse assessed as worm burden reduction at 200 mg/kg, po measured after 14 days relative to control. Format: functional. The arrangement: scale not given: the % may be the effect or the level left. The conditions noted are these: time 14 day.
The nature of data set [6]: Cytotoxicity against Biomphalaria alexandrina incubated for 24 hrs.
The test system of data set [7] is Schistosoma mansoni. In words: Antischistosomal activity against Schistosoma mansoni Puerto-Rican assessed as worm mortality incubated for 5 days by stereomicroscopic method. Format: functional, organism-based. To be noted: 120 h; for IC90: time 5 day.
Data set [8] concerns Schistosoma mansoni. In words: Antischistosomal activity against Schistosoma mansoni Egyptian assessed as worm mortality incubated for 5 days by stereomicroscopic method. To be noted: 120 h; for IC90: time 5 day. Format: functional, organism-based.
The test system of data set [9] is Schistosoma mansoni. In words: Antischistosomal activity against Schistosoma mansoni assessed as worm mortality at 5 ug/ml incubated for 5 days by stereomicroscopic method relative to control. To be noted: 120 h, time 5 day. Format: functional.
A short description of data set [10]: Cytotoxicity against Biomphalaria alexandrina incubated for 24 hrs relative to control. The arrangement: concentration or dose not given beside the values.
In data set [11] the test system is Schistosoma mansoni. In words: Antischistosomal activity against Schistosoma mansoni Puerto Rican schistosomula assessed as effect on worm phenotype measured after 72 hrs. Format: functional, organism-based.
Data set [12] has as its system Schistosoma mansoni. In words: Antischistosomal activity against Schistosoma mansoni Puerto Rican schistosomula assessed as effect on worm motility measured after 72 hrs. Format: functional, organism-based.
For data set [13], the system named is Schistosoma mansoni. Briefly: Antischistosomal activity against Schistosoma mansoni infected in NMRI mouse assessed as worm burden reduction at 200 mg/kg, po administered as single dose and measured after 17 to 21 days relative to control. The arrangement: scale not given: the % may be the effect or the level left. Format: functional, organism-based. The conditions noted are these: time 17-21 day.

A further data set deals with Schistosoma haematobium. Briefly: Antischistosomal activity against Schistosoma haematobium at 10 uM measured after 72 hrs relative to control. Format: functional.
Data set [14] concerns Schistosoma mansoni. In words: microbe, parasite or virus in culture. The conditions noted are these: 72 h.
Description: Antischistosomal activity against Schistosoma mansoni incubated for 72 hrs by inverted microscopic method

Some results are limits rather than exact numbers.

By IC50 is commonly meant the concentration at which inhibition is half-maximal. Take `O=C(CCl)NCCOc1ccc(Cl)cc1Cl`: the IC50 with Schistosoma mansoni [1] was 3.4 µM; in the data set on Schistosoma mansoni [3], 1.8 µM. Moreover, the Activity in the data set with Schistosoma mansoni [2] amounted to 1.8%.

Consider `O[C@@H]1OC[C@@H](Cc2ccc3c(c2)OCO3)[C@@H]1Cc1ccc2c(c1)OCO2`, for which the Activity in the data set with Schistosoma mansoni [4] is on record as over 75%.

Take `O[C@@H](c1cc(-c2ccc(C(F)(F)F)cc2)nc(C(F)(F)F)c1)[C@@H]1CCCCN1`: the Activity in the data set on Schistosoma mansoni [5] is listed as over 82%.

One may read the LC50 as the concentration that kills 50% of the test population. For orientation: IC90 means the concentration needed for an effect of 90%. For orientation: mortality means the share of the test organisms that died. In data set [6], `Cn1c2nc3ccccc3c-2c(N2CCN(CCO)CC2)c2cc(Cl)ccc21` showed an LC50 of 3.9 µM and an LC90 of 4.8 µM. Also, in the data set on Schistosoma mansoni [7], the IC50 was 3.29 µM and the IC90 worked out at 5.57 µM. Also, in the data set with Schistosoma mansoni [8], the IC50 worked out at 1.77 µM and the IC90 amounted to 4.55 µM. Moreover, in the data set with Schistosoma mansoni [9], the mortality at 5 µg/mL was 100%. Moreover, the mortality in [10] was found to be 100%.

On to `O[C@H](c1cc(-c2ccc(C(F)(F)F)cc2)nc(C(F)(F)F)c1)[C@H]1CCCCN1`, for which, in the data set on Schistosoma mansoni [5], the Activity is listed as over 82%.

In data set [6], `CN(C)CCNc1c2c3ccccc3nc-2n(C)c2ccc(Cl)cc12` returned an LC50 of 1.47 µM and an LC90 of 2.12 µM. For the same compound, in the data set on Schistosoma mansoni [7], the IC50 turned out to be 5.95 µM and the IC90 came to 13 µM. Further, in the data set on Schistosoma mansoni [8], the IC50 is 3.68 µM and the IC90 turned out to be 7.65 µM. Further, in the data set on Schistosoma mansoni [9], the mortality at 5 µg/mL worked out at 100%. In data set [10], this compound came in with a mortality of 100%.

In data set [6], `CCN1CCCC1CNc1c2c3ccccc3nc-2n(C)c2ccc(Cl)cc12` (centres undefined) yielded an LC50 of 2.95 µM and an LC90 of 4.1 µM. In addition, the mortality in [10] is given as 100%.

Compound `Brc1ccc(Nc2nc3ccccc3nc2Nc2ccc(Br)cc2)cc1` had an IC50 in the data set on Schistosoma mansoni [1] of 0.8 µM. Also, the Activity in the data set on Schistosoma mansoni [2] was found to be 40.8%.

Regarding `Cn1c2nc3ccccc3c-2c(NCCN2CCCC2)c2cc(Cl)ccc21`, in data set [6], the LC50 stood at 1.74 µM and the LC90 was 2.64 µM. Further, the mortality in data set [10] worked out at 100%.

On to `CC1(C)CCC[C@]2(C)C(CC[C@@](C)(O)/C=C/c3cccc(Cl)c3)[C@](C)(O)CC[C@@H]12` (some centres undefined), for which the IC50 in the data set on Schistosoma mansoni [11] and in the data set on Schistosoma mansoni [12] was under 10 µM each time.

Consider `O=C(Nc1ccc(N2CCNCC2)cc1)c1ccn2ncc(-c3cccc(Cl)c3)c2n1`, for which the Activity is recorded as 70.7% in the data set with Schistosoma mansoni [13] and 100% in the data set on Schistosoma haematobium. In addition, the IC50 was 0.6 µM in the data set with Schistosoma mansoni [3] and 2 µM in the data set with Schistosoma mansoni [14].

For `CCN(CC)CCCC(C)Nc1c2c3ccccc3nc-2n(C)c2ccc(Cl)cc12` (centres undefined), the IC50 with Schistosoma mansoni [7] was determined as 15 µM; in the data set with Schistosoma mansoni [8], 11.7 µM. Also, the values for the IC90 in the data set with Schistosoma mansoni [7] and with Schistosoma mansoni [8] were 21.7 µM and 16.8 µM, respectively. Also, the mortality at 5 µg/mL with Schistosoma mansoni [9] is 100%.

As to `CS(=O)(=O)c1ccc(C(=O)N(CC2CCCO2)c2nc3ccccc3s2)cc1[N+](=O)[O-]` (centres undefined), the figures for the Activity in the data set on Schistosoma mansoni [13] and in the data set with Schistosoma haematobium were 55.2% and 90.8%, respectively. Moreover, the IC50 with Schistosoma mansoni [3] amounted to 0.4 µM; in the data set on Schistosoma mansoni [14] it was 3.7 µM.

As for `CN1CCC(NCc2cccc(-c3ccc(S(=O)(=O)NCc4ccccc4)cc3)c2)CC1`, the Activity with Schistosoma mansoni [13] is 67.8%; with Schistosoma haematobium it was 75.4%. For the same compound, the values for the IC50 in the data set on Schistosoma mansoni [3] and with Schistosoma mansoni [14] were 2.6 µM and 3 µM, respectively.

In the case of `COc1ccc(Nc2nc(NCc3ccccc3)c3ccccc3n2)cc1`, the IC50 in the data set with Schistosoma mansoni [1] turned out to be 0.8 µM; in the data set with Schistosoma mansoni [3], 2.7 µM. Besides, in the data set with Schistosoma mansoni [2], the Activity came to 0%.

Turning to `CN1CCN(c2c3cc(Cl)ccc3nc3[nH]c4ccccc4c23)CC1`, in [6], the LC50 came out at 0.63 µM and the LC90 is 0.91 µM. Further, in the data set with Schistosoma mansoni [7], the IC50 worked out at 6.27 µM and the 90% effect concentration (IC90) was 17.9 µM. Besides, in the data set with Schistosoma mansoni [8], the IC50 is 5.41 µM and the IC90 amounted to 13.7 µM. Moreover, in the data set on Schistosoma mansoni [9], the mortality at 5 µg/mL was determined as 100%. This compound registered a mortality in [10] of 100%.

On to `Clc1cc(Br)ccc1-c1ccc(CNCC2CCNCC2)o1`, for which the IC50 with Schistosoma mansoni [1] amounted to 6.3 µM; in the data set on Schistosoma mansoni [3], 3.4 µM. The Activity with Schistosoma mansoni [2] is reported as 18.7%.

As for `COc1ccc(Oc2ccc([C@H](C)N(C)c3ncc4c(N)nc(N)nc4n3)cc2)cc1`, the Activity in the data set with Schistosoma mansoni [13] was determined as 32.8%; in the data set with Schistosoma haematobium, 50.9%. Moreover, the IC50 in the data set on Schistosoma mansoni [3] was determined as 16.7 µM; with Schistosoma mansoni [14] it was 7.9 µM.

With `O=C1OC[C@@H](Cc2ccc3c(c2)OCO3)[C@@H]1Cc1ccc2c(c1)OCO2`, in the data set with Schistosoma mansoni [4], the Activity was over 75%.

In the case of `CC1(C)CCC[C@]2(C)C(CC[C@@](C)(O)/C=C/c3ccc(Cl)cc3)[C@](C)(O)CC[C@@H]12` (some centres undefined), the IC50 with Schistosoma mansoni [11] and in the data set with Schistosoma mansoni [12] was under 10 µM in each case.

Take `OC(c1cc(-c2ccc(C(F)(F)F)cc2)nc(C(F)(F)F)c1)C1CCCCN1` (centres undefined) [ENPIROLINE]: the Activity in the data set with Schistosoma mansoni [5] was over 82%.

For `CC1(C)CCC[C@]2(C)C(CC[C@@](C)(O)/C=C/c3ccccc3)[C@](C)(O)CC[C@@H]12` (some centres undefined), the IC50 in the data set with Schistosoma mansoni [11] and with Schistosoma mansoni [12] was under 10 µM throughout.

In the case of `COc1cc(C[C@@H]2C(=O)OC[C@H]2Cc2ccc3c(c2)OCO3)cc(OC)c1OC`, the Activity in the data set on Schistosoma mansoni [4] was over 75%.

For the compound `C=C[C@](C)(O)CCC1[C@](C)(O)CC[C@H]2C(C)(C)CCC[C@]12C` (some centres undefined), the values for the IC50 in the data set on Schistosoma mansoni [11] and in the data set with Schistosoma mansoni [12] were 14.2 µM and 12.3 µM, respectively.

For the compound `Cn1c2nc3ccccc3c-2c(N2CCC(N3CCCCC3)CC2)c2cc(Cl)ccc21`, in data set [6], the LC50 worked out at 2.6 µM and the LC90 amounted to 3.5 µM. In the data set with Schistosoma mansoni [7], the IC50 worked out at 7.85 µM and the IC90 was found to be 13.4 µM. For the same compound, in the data set on Schistosoma mansoni [8], the IC50 is 3.46 µM and the IC90 is 8.31 µM. The mortality at 5 µg/mL in the data set with Schistosoma mansoni [9] is 100%. In data set [10], this compound registered a mortality of 100%.

Take `CCN(CC)CCCC(C)Nc1c2c3ccccc3nc-2n(C)c2cc(Cl)ccc12` (centres undefined): in the data set with Schistosoma mansoni [7], the IC50 was 29.3 µM and the IC90 is 32.8 µM. Further, in the data set on Schistosoma mansoni [8], the IC50 is 19.3 µM and the IC90 was 24.3 µM. Moreover, in the data set with Schistosoma mansoni [9], the mortality at 5 µg/mL is 100%.

Take `Cn1c2nc3ccccc3c-2c(NCCN2CCOCC2)c2cc(Cl)ccc21`: in data set [6], the LC50 was determined as 1.3 µM and the LC90 was determined as 2.2 µM. For the same compound, in the data set on Schistosoma mansoni [7], the IC50 stood at 3.54 µM and the IC90 worked out at 6.83 µM. Further, in the data set on Schistosoma mansoni [8], the IC50 is 1.26 µM and the IC90 came to 4.05 µM. Further, the mortality at 5 µg/mL with Schistosoma mansoni [9] is 100%. The mortality in data set [10] was found to be 100%.

Take `Clc1ccc2nc3[nH]c4ccccc4c3c(NCCN3CCOCC3)c2c1`: the figures for the IC50 with Schistosoma mansoni [7] and in the data set with Schistosoma mansoni [8] were 7.61 µM and 3.41 µM, respectively. In addition, the IC90 in the data set on Schistosoma mansoni [7] amounted to 11 µM; in the data set on Schistosoma mansoni [8] it was 6.3 µM. Moreover, in the data set with Schistosoma mansoni [9], the mortality at 5 µg/mL came out at 100%.

As to `O=C(Nc1ccc(Cl)c(Cl)c1)Nc1ccc(Cl)c(Cl)c1`, in the data set on Schistosoma mansoni [2], the Activity was found to be 52.5%. Further, the concentration for half-maximal inhibition (IC50) in the data set on Schistosoma mansoni [3] came out at 4.7 µM.

The values are drawn from ChEMBL document CHEMBL4811216, “Chemotherapy for human schistosomiasis: how far have we come? What's new? Where do we go from here?” (RSC Med Chem, 2020).
